What all share (format): biochemical
The target in experiment [1] is CK1a1 (Homo sapiens, UniProt P48729). Briefly: Kinase selectivity, % remaining activity. Particulars: read-out: % of remaining activity (relative to DMSO), CK1a1; 10 μM compound, 10 μM ATP, duplicate. As for the experimental part: Compounds were tested in single dose duplicate mode at a concentration of 10 μM (in DMSO) and reactions were carried out at 10 μM ATP, Table 3 reports the % of remaining activity (relative to DMSO).

The target of experiment [2] is CK1d (casein kinase 1 delta) (Homo sapiens, UniProt P48730). Briefly: Kinase selectivity, % remaining activity and IC50. Particulars: CK1d; 10 μM compound, 10 μM ATP, duplicate; read-out: % of remaining activity (relative to DMSO). A digest of the protocol: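 Percent remaining activity relative to DMSO was measured in duplicate with compound at 10 μM and 10 μM ATP. IC50 values for CK1δ were then determined, also at 10 μM ATP.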

Experiment [3] concerns the target FGFR1 (Homo sapiens, UniProt P11362). The experiment is described as follows: Kinase selectivity, % remaining activity. Particulars: 10 μM compound, 10 μM ATP, duplicate, read-out: % of remaining activity (relative to DMSO). The method, boiled down:
(§1)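 % remaining activity vs DMSO; compound 10 μM, duplicate wells; ATP 10 μM.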

Experiment [4] concerns the target KDR/VEGFR2 (Homo sapiens, UniProt P35968). The experiment is described as follows: Kinase selectivity, % remaining activity. The note with it: 10 μM compound, 10 μM ATP, duplicate, read-out: % of remaining activity (relative to DMSO). A digest of the protocol: as §1
The target of experiment [5] is CK1g3 (Homo sapiens, UniProt Q9Y6M4). The experiment is described as follows: Kinase selectivity, % remaining activity. The note with it: 10 μM compound, 10 μM ATP, duplicate, read-out: % of remaining activity (relative to DMSO). The method, boiled down: as §1
Experiment [6] concerns the target EGFR (Homo sapiens, UniProt P00533). The experiment is described as follows: Kinase selectivity, % remaining activity. Particulars: 10 μM compound, 10 μM ATP, duplicate, read-out: % of remaining activity (relative to DMSO). A digest of the protocol: as §1
Experiment [7] addresses MSK1/RPS6KA5 (Homo sapiens, UniProt O75582). Briefly: Kinase selectivity, % remaining activity. The note with it: 10 μM compound, 10 μM ATP, duplicate, read-out: % of remaining activity (relative to DMSO). The method, boiled down:
as §1

Experiment [8] addresses T1, ALK5/TGFBR1 (Homo sapiens, UniProt P36897).
T1 sequence (P36897 34-503): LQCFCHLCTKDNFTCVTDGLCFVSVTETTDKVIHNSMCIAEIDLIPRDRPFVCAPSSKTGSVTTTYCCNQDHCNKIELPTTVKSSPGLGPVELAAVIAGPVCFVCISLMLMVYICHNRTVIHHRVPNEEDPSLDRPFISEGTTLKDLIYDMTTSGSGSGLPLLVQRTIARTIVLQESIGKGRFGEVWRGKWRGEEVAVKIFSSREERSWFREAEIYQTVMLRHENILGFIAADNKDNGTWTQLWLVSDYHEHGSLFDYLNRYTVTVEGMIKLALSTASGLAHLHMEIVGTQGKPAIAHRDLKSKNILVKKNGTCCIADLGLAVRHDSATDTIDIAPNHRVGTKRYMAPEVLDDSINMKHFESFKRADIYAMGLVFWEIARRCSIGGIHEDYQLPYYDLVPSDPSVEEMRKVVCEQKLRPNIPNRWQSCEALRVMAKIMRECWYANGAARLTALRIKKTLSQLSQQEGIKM
The experiment is described as follows: Kinase selectivity, % remaining activity. The note with it: 10 μM compound, 10 μM ATP, duplicate, read-out: % of remaining activity (relative to DMSO). The method, boiled down:
as §1

Experiment [9] addresses TNIK (Homo sapiens, UniProt Q9UKE5). Briefly: Kinase selectivity, % remaining activity. The note with it: 10 μM compound, 10 μM ATP, duplicate, read-out: % of remaining activity (relative to DMSO). A digest of the protocol: as §1
Experiment [10] addresses YES/YES1 (Homo sapiens, UniProt P07947). The experiment is described as follows: Kinase selectivity, % remaining activity. Particulars: 10 μM compound, 10 μM ATP, duplicate, read-out: % of remaining activity (relative to DMSO). A digest of the protocol:
as §1

The target of experiment [11] is T2, PDK1/PDPK1 (Homo sapiens, UniProt O15530).
T2 sequence (O15530 1-556): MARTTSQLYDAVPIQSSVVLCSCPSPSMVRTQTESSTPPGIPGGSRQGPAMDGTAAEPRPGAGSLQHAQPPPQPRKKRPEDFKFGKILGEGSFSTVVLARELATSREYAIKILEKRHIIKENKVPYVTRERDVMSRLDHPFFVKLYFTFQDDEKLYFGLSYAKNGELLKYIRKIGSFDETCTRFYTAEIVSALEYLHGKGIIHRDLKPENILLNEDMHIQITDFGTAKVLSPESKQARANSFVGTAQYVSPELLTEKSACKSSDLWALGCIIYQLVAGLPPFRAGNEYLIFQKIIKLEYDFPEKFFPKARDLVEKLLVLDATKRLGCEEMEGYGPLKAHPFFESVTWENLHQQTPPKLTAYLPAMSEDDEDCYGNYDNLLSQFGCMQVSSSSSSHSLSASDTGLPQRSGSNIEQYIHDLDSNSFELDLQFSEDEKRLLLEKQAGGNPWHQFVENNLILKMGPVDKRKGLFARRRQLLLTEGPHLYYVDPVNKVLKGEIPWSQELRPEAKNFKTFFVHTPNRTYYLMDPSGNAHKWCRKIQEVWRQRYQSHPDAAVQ
Briefly: Kinase selectivity, % remaining activity. Particulars: 10 μM compound, 10 μM ATP, duplicate, read-out: % of remaining activity (relative to DMSO). A digest of the protocol:
as §1

The target in experiment [12] is RIPK2 (Homo sapiens, UniProt O43353). Briefly: Kinase selectivity, % remaining activity. The note with it: 10 μM compound, 10 μM ATP, duplicate, read-out: % of remaining activity (relative to DMSO). A digest of the protocol: as §1
Experiment [13] has as its target JNK2 (Homo sapiens, UniProt P45984). The experiment is described as follows: Kinase selectivity, % remaining activity. The note with it: 10 μM compound, 10 μM ATP, duplicate, read-out: % of remaining activity (relative to DMSO). A digest of the protocol:
as §1

In experiment [14] the target is ABL2/ARG (Homo sapiens, UniProt P42684). Briefly: Kinase selectivity, % remaining activity. Particulars: 10 μM compound, 10 μM ATP, duplicate, read-out: % of remaining activity (relative to DMSO). The method, boiled down: as §1
Experiment [15] addresses PIM3 (Homo sapiens, UniProt Q86V86). Briefly: Kinase selectivity, % remaining activity. Particulars: 10 μM compound, 10 μM ATP, duplicate, read-out: % of remaining activity (relative to DMSO). A digest of the protocol:
as §1

The target in experiment [16] is CDK5/p25 (Homo sapiens, UniProt Q00535). The experiment is described as follows: Kinase selectivity, % remaining activity. The note with it: 10 μM compound, 10 μM ATP, duplicate, read-out: % of remaining activity (relative to DMSO). A digest of the protocol:
as §1

Experiment [17] addresses PKA (Homo sapiens, UniProt P17612). The experiment is described as follows: Kinase selectivity, % remaining activity. The note with it: 10 μM compound, 10 μM ATP, duplicate, read-out: % of remaining activity (relative to DMSO). A digest of the protocol:
as §1

The target in experiment [18] is EPHA2 (Homo sapiens, UniProt P29317). Briefly: Kinase selectivity, % remaining activity. The note with it: 10 μM compound, 10 μM ATP, duplicate, read-out: % of remaining activity (relative to DMSO). The method, boiled down: as §1
Experiment [19] has as its target GSK3B (Homo sapiens, UniProt P49841). Briefly: Kinase selectivity, % remaining activity. The note with it: 10 μM compound, 10 μM ATP, duplicate, read-out: % of remaining activity (relative to DMSO). A digest of the protocol:
as §1

The target in experiment [20] is CLK2 (Homo sapiens, UniProt P49760). The experiment is described as follows: Kinase selectivity, % remaining activity. The note with it: 10 μM compound, 10 μM ATP, duplicate, read-out: % of remaining activity (relative to DMSO). The method, boiled down: as §1
Experiment [21] concerns the target c-Src (Homo sapiens, UniProt P12931). The experiment is described as follows: Kinase selectivity, % remaining activity. The note with it: 10 μM compound, 10 μM ATP, duplicate, read-out: % of remaining activity (relative to DMSO). The method, boiled down:
as §1

Sequence of CK1g3 (Q9Y6M4 whole entry): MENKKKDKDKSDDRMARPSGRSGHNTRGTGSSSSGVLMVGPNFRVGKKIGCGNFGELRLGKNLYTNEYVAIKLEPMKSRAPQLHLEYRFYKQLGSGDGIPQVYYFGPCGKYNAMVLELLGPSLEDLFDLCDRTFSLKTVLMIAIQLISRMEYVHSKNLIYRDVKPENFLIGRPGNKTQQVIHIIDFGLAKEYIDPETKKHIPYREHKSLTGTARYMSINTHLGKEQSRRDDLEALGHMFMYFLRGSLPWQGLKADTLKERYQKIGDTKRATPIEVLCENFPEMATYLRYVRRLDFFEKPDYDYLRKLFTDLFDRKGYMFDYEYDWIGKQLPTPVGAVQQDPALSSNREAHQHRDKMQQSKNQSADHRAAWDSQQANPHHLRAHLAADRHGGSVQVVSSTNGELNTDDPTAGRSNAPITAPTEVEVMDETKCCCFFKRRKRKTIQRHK
Sequence of EPHA2 (P29317 24-976): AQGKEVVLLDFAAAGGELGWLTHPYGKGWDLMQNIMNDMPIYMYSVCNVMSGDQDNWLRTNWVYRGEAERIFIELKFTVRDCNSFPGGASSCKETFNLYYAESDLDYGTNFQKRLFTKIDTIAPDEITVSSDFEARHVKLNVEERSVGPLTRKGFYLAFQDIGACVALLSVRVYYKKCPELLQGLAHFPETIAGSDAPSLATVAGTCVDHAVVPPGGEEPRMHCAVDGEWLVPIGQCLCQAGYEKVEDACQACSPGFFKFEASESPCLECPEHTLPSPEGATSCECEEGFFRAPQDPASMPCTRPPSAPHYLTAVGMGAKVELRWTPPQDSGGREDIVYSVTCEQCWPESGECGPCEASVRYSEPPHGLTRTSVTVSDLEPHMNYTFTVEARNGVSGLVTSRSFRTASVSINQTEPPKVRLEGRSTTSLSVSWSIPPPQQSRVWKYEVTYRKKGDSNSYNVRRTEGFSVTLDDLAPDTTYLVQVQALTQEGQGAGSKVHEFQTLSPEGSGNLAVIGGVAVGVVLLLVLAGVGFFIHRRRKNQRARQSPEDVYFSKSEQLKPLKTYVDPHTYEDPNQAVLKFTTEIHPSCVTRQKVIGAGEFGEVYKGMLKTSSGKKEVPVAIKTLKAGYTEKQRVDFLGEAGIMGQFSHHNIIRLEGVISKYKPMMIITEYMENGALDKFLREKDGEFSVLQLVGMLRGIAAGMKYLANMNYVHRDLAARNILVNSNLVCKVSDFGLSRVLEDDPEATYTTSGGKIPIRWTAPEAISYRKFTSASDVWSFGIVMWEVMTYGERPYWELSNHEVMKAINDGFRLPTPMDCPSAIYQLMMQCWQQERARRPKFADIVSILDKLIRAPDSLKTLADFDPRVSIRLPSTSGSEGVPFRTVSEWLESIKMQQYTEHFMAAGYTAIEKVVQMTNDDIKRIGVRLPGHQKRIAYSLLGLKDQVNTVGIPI
Sequence of MSK1/RPS6KA5 (O75582 whole entry): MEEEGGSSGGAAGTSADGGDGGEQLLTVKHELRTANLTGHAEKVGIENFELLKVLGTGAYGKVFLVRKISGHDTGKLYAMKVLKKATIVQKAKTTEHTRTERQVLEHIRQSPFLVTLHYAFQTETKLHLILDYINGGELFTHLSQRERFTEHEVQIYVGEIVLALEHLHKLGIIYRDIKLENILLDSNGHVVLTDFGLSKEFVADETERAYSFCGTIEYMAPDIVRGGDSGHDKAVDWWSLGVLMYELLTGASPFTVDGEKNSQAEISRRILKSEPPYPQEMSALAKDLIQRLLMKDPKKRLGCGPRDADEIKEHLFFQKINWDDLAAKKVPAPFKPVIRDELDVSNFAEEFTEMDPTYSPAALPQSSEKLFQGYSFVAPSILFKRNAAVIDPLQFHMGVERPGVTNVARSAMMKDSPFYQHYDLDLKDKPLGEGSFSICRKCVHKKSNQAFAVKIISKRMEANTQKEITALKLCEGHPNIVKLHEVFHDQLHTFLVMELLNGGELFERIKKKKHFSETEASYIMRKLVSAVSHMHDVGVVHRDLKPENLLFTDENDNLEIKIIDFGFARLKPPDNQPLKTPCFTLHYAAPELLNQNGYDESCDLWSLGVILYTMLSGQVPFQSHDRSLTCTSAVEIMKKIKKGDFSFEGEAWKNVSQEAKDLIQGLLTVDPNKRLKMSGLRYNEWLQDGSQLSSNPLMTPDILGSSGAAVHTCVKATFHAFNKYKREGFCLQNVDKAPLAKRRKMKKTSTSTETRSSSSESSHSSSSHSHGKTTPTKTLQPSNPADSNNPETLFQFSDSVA
Sequence of CDK5/p25 (Q00535 whole entry, species assumed): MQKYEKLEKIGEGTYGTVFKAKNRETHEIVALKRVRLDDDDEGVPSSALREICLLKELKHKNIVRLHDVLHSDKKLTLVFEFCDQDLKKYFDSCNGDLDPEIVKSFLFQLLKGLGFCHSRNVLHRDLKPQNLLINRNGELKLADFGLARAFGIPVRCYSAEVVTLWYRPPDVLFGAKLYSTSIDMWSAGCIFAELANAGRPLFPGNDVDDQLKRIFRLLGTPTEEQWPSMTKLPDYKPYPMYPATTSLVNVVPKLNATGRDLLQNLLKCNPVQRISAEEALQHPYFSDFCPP
Sequence of TNIK (Q9UKE5 whole entry): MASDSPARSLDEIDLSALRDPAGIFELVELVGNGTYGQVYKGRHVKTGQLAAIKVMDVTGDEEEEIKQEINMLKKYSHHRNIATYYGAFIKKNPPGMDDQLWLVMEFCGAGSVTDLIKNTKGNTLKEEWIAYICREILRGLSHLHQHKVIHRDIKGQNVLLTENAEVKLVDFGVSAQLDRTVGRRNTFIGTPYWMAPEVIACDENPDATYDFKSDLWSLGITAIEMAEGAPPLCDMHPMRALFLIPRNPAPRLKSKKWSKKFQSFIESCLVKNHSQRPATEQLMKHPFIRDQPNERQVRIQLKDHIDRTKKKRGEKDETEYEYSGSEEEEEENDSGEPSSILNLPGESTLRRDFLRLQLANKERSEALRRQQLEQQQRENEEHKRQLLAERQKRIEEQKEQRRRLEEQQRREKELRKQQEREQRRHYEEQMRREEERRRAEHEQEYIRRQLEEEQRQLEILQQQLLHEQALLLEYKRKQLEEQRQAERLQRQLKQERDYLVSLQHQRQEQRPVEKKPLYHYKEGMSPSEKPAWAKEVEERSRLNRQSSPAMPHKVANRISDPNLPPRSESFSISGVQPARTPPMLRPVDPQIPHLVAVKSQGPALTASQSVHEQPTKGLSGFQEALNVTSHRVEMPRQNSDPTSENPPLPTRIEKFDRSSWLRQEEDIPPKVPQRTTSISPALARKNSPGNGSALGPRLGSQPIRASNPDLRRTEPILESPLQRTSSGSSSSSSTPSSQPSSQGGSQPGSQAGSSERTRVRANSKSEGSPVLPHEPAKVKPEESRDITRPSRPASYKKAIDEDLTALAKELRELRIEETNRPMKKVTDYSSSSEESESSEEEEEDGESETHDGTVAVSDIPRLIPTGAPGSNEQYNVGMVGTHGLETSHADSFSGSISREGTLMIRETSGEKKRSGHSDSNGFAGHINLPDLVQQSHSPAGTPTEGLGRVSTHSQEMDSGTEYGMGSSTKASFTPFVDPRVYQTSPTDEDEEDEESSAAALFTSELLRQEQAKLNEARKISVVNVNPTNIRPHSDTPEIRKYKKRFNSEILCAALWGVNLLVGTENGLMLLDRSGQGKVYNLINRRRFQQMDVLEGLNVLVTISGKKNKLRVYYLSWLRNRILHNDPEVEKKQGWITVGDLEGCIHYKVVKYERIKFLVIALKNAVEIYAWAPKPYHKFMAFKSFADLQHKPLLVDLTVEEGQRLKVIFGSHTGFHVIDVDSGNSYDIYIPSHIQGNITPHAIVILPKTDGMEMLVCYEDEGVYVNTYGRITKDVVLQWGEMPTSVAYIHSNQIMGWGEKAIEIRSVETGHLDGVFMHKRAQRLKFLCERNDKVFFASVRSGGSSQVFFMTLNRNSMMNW
Sequence of JNK2 (P45984 whole entry): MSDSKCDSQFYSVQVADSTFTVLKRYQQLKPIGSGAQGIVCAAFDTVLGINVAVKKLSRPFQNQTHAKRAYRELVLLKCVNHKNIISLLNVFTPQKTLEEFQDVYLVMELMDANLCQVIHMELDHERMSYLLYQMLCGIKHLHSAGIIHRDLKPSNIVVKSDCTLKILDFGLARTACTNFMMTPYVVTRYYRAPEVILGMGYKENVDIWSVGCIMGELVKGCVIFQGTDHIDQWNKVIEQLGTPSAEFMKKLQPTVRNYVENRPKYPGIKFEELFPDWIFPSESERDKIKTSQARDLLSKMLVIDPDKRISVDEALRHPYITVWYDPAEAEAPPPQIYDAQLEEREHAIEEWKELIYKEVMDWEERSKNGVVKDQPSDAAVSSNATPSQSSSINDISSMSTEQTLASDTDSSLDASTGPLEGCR
Sequence of RIPK2 (O43353 whole entry): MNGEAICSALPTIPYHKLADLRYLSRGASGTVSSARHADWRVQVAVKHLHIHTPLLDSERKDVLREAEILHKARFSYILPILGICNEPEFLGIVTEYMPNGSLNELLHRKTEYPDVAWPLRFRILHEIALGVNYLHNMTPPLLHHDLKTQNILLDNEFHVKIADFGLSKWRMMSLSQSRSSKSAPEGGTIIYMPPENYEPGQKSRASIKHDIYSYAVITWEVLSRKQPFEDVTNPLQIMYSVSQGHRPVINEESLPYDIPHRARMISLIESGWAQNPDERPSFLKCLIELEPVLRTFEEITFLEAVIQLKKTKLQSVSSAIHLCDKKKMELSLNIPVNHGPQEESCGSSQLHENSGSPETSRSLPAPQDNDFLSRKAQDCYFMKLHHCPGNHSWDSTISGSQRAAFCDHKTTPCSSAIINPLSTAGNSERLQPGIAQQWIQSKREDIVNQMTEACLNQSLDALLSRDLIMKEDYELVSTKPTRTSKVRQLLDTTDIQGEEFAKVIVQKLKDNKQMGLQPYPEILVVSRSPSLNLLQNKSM

As for `Nc1ncnc2c1c(COc1cccc(Cl)c1)nn2C1CCOCC1` [PF4800567, 3-[(3-Chlorophenoxy)methyl]-1-(tetrahydro-2H-pyran-4-yl)-1H-pyrazolo[3,4-d]pyrimidin-4-amine], the remaining activity (in general, the signal under treatment as a percentage of the control signal) at 10 µM in [1] was 29.3%; in [2] it was 8.41%; in [3], 80.8%; in [4], 83.1%; in experiment [5], 88.9%; in [6], 68.8%. For the same compound, the remaining activity at 10 µM came to 104% in experiment [7]; 105% in [8]; 89.7% in experiment [9]; 15.5% in experiment [10]; 103% in [11]; 47.6% in experiment [12]. The remaining activity at 10 µM in experiment [13] was 96.5%; in [14] it was 68.4%; in experiment [15] it was 116%; in experiment [16], 97.7%; in experiment [17], 83%; in [18], 39%. For the same compound, the figures for the remaining activity at 10 µM in experiment [19], in experiment [20] and in [21] were 114%, 105% and 44%, respectively.
